Square brackets hold non-standard residues; d marks the D form. Peptide text beside a SMILES is read from it. * marks the point of attachment. Sta = CC(C)C[C@H](N)[C@@H](O)CC(=O)O; Isovaleryl = CC(C)CC(=O)*
Legend:
mouse pancreatic islets = assay: Static incubation of isolated pancreatic islets, insulin secretion; type: cell-based; conditions: for insulin secretory responses to 20 mM glucose in presence of other protease inhibitors: 100 μM inhibitor; for effect on basal or glucose-stimulated insulin secretion: 100 μM Cathepsin B Inhibitor II, 20 μM Lactacystin
Procedure: Static incubation of isolated pancreatic islets. Isolation of mouse pancreatic islets was accomplished using collagenase digestion as previously described (Pontoglio et al., 1998). […] Triplicate groups of 5 islets were then incubated in borosilicate tubes containing 1 ml of KRB with the same concentration of inhibitor and various insulin secretagogues for one hour in a moving water bath at 37° C. The reaction was stopped by placing the tubes on ice and an aliquot of the buffer was removed for measurement of insulin levels. Control studies, in which the incubation mixture contained vehicle (0.1% DMSO) only, were performed using aliquots of the same batch of islets
Assay methods. Insulin concentrations were measured by a double antibody radioimmunoassay using a rat insulin standard. The intra-assay coefficient of variation for this technique is 7%. All samples were assayed in duplicate.

soleus muscle strips = assay: Glycogen synthesis rates in skeletal muscle; type: cell-based, rat; conditions: 100 μM ALLM or 200 μM E-64-d
Text: Glycogen synthesis rates in skeletal muscle.

mouse islets [1] = assay: Measurement of islet [Ca2+]i (Fura-2); type: cell-based
Procedure: (§1) Measurement of islet [Ca^2+]i, and NAD(P)H. Islet [Ca^2+]i and NAD(P)H were measured as previously described (Pontoglio et al., 1998; Dukes et al., 1998).
Insulin secretory responses to glucose and most other secretagogues is mediated by a rise in intracellular free calcium ([Ca^2+]i). We therefore measured [Ca^2+]i responses to glucose, KIC and KCl using Fura-2 as the Ca^2+ indicator. In comparison to the responses from the control islets, the most prominent abnormality in [Ca^2+]i responses to glucose and KIC was a delay of the [Ca^2+]i responses (FIG. 21). The mean time interval between administration of 14 mM glucose and the point of half maximal response (T1/2.) was 120±14 seconds in control islets. […] There was no delay in the appearance of [Ca^2+]i response to KCl, nor was the magnitude of the response reduced.

perifused mouse islets = assay: Insulin secretion from perifused islets; type: cell-based; conditions: 4 hr preincubation; 100 μM ALLM, 200 μM E-64-d
Procedure: Insulin secretion from perifused islets. Insulin secretion from perifused islets was measured using a modification of a previously described protocol (Pontoglio et al., 1998; Sreenan et al., 1998).

rat soleus muscle strips = assay: 2-Deoxyglucose uptake into soleus muscle strips; type: cell-based; conditions: 100 μM ALLM or 200 μM E-64-d
Procedure: 2-Deoxyglucose uptake into skeletal muscle and adipose tissue. 2-deoxyglucose (2-DOG) uptake by isolated strips of soleus muscle from normal Wistar rats was measured using a modification of a previously described protocol (Burant et al., 1984). […] Muscles were then extracted and 2-DOG uptake calculated as previously described (Burant et al., 1984).

isolated β-cells = assay: Membrane capacitance recordings (exocytosis) in isolated β-cells; type: cell-based, mouse; conditions: 4 days culture with inhibitor
Procedure: Isolation of pancreatic β-cells. Single β-cells were obtained from isolated islets dispersed by gentle trituration (120 strokes through a 200 μl pipette tip) in Ca^2+ and Mg^2+-free PBS containing […]. Cells were plated on glass coverslips and maintained in culture in RPMI containing 11.6 mM glucose for 48-96 hr.
Capacitance recordings. Capacitance measurements were made with the phase-tracking technique in which a 60 mV peak-to-peak sine wave was superimposed on a holding potential of −80 mV as previously described. Conductance and capacitance values were continuously generated and recorded. The whole-cell capacitance was canceled with the slow capacitance compensation; unbalancing the slow capacitance compensation by 100 fF provided the capacitance calibration signal used to calculate changes in membrane capacitance. The sinusoidal voltage template was interrupted to deliver depolarizations to a cell. Beta cells were stimulated with a train of ten step depolarizations to +20 mV (HP=−80 mV). Each step depolarization lasted 150 ms and was separated by 400 ms interpulse duration. Capacitance measurements were carried out in the perforated whole-cell configuration. The data were collected at a 500 μsec sampling rate and filtered at 5 kHz. Recordings with series resistance >20 MΩ were discarded. Series resistance compensation was applied in all recordings.
The recording solution for the capacitance measurements contained (in mM): 130 NaCl, 2 glucose, 10 Na-HEPES, 1 MgCl2, 2 KCl, and 5 CaCl2, pH 7.3 with NaOH. The pipette solution contained (in mM): 135 Cs-glutamate, 10 Na-HEPES, 9.5 NaCl, 0.5 TEACl, and 0.5 CaCl2, pH7.3 with CsOH. The pipettes were backfilled with an identical solution to which amphotericin B (final concentration of 0.5 mg/ml) was added and then sonicated. The amphotericin B stock solution (125 mg/ml) was kept frozen at −20° C. and used for one week. ALLM pre-treatment was as described above (see patch-clamp electrophysiology section). All electrophysiological recordings were carried out at room temperature (22-24° C.)

islets = assay: Insulin content of islets after 48 h inhibitor exposure; type: cell-based, mouse; conditions: 48 hours treatment
mouse islets [2] = assay: Glucose utilization and oxidation rates in islets; type: cell-based
Procedure: Glucose utilization and oxidation rates. Glucose utilization and oxidation rates were measured as previously described (Dukes et al., 1998; Zhou et al., 1996) in mouse islets cultured as described above in the presence or absence of calpain inhibitors.

calpain = assay: Calpain activity in mouse pancreatic islets (Boc-Leu-Met-CMAC cleavage); type: cell-based
rat adipocytes = assay: 2-Deoxyglucose uptake into adipocytes; type: cell-based; conditions: 100 μM ALLM or 200 μM E-64-d
Procedure: Adipocytes were isolated from epididymal fat pads of 3 month old male Wistar rats as described previously (Robdell, 1964) with the following modification: fat pads were minced to 1-2 mm pieces and incubated for ˜25 min at 37° C. with collagenase I (1 mg/ml, Worthington Biochemicals, Lakewood, N.J.) in KRB containing 10 mM Hepes (pH 7.4), 0.2% BSA and 2 mM sodium pyruvate. The cell suspension was filtered through a nylon mesh (134 μM, Spectrum Lab., Laguna Hills, Calif.) washed three times by floating and allowed to rest for 45 min in the KRB. […] Then another 50 μl of KRB containing 5 mM 2-DOG (final concentration 1 mM), 0.5 μCi of 2-deoxy-[2,6-^3H]glucose was added and cells were incubated for a further 5 min at 25° C. The transport was stopped by adding cytochalasin B (final concentration 50 μM) and cells were spun through 250 μl of dinonyl phthalate oil (Fisher Scientific, Pittsburgh, Pa.). Cells were then transferred to scintillation vials for counting.

mouse islets [3] = assay: Islet NAD(P)H autofluorescence response; type: cell-based
Procedure: as §1

Molecule: CC(=O)N[C@@H](CC(C)C)C(=O)N[C@H](C(=O)N[C@H](C=O)CCCCN)C(C)C [Cath B Inhibitor II] (Ac-Leu-Val-Lys-aldehyde)
- insulin secretory responses to 20 mM glucose in presence of other protease inhibitors (mouse pancreatic islets): not altered
- effect on basal or glucose-stimulated insulin secretion (mouse pancreatic islets; 48 h): did not significantly affect

Molecule: CCOC(=O)[C@H]1O[C@@H]1C(=O)N[C@@H](CC(C)C)C(=O)NCCC(C)C [E-64-d, ethyl (+)-(2S,3S)-3-[(S)-3-Methyl-1-(3-methylbutylcarbamoyl)butyl-carbamoyl]-2-oxiranecarboxylate]
- magnitude of insulin-induced increase in muscle glycogen synthesis (soleus muscle strips; insulin 6 nM): 0.31±0.09 nmol glucose/mg/hr
- rate of muscle glycogen synthesis with insulin (soleus muscle strips; insulin 6 nM): 0.80±0.14 nmol glucose/mg/hr
- rate of muscle glycogen synthesis without insulin (soleus muscle strips; no insulin): 0.49±0.08 nmol glucose/mg/hr
- [Ca2+]i response to high glucose (mouse islets [1]; 4 hr preincubation, 14 mM glucose): not associated with increases in [Ca^2+]i
- [Ca2+]i response to glucose ramp (2 to 26 mM over 48 mins) (mouse islets [1]; 48 h treated islets): diminished
- [Ca2+]i responses to 30 mM KCl vs control (mouse islets [1]; 48 h treated islets): not different
- integrated [Ca2+]i responses (area under the curves) to glucose and KIC vs control (mouse islets [1]; 48 h treated islets): significantly smaller
- T1/2 of [Ca2+]i response to 14 mM glucose (time to half maximal response) (mouse islets [1]; 48 h treated islets, control 120±14 seconds): 265 ± 65 s
- T1/2 of [Ca2+]i response to KIC (mouse islets [1]; 48 h treated islets, control 125±9): 330 ± 7 s
- enhancement of insulin secretory response to 20 mM glucose in dynamic islet perifusion (perifused mouse islets): also observed
- 2-deoxyglucose uptake into soleus muscle strips with insulin (rat soleus muscle strips; insulin 12 nM): 0.36±0.02 (mol/ml H20/30 mins
- 2-deoxyglucose uptake into soleus muscle strips without insulin (rat soleus muscle strips; no insulin): 0.31±0.02 (mol/ml H20/30 mins
- rates of exocytosis in β-cells (isolated β-cells): significantly lower rates of exocytosis
- insulin secretory response to 20 mM glucose after recovery (mouse pancreatic islets; 48-h treatment, then 2 days recovery without inhibitor): essentially normal insulin secretory response
- effect on insulin secretion at 2 mM glucose (mouse pancreatic islets; 4 hr exposure, ALLM 250 μM, E-64-d 200 μM, 2 mM glucose): not observed
- basal insulin secretion (2 mM glucose) vs control-treated islets (mouse pancreatic islets; 48 hours exposure): no significant difference
- insulin secretory response to 30 mM KCl (mouse pancreatic islets; 48 h treated islets): significantly reduced
- insulin secretory response to carbachol (mouse pancreatic islets; 48 h treated islets): attenuated
- insulin secretory response to glyceraldehyde (mouse pancreatic islets; 48 h treated islets): responded normally
- insulin secretory response to mastoparan (mouse pancreatic islets; 48 h treated islets): attenuated
- insulin-secretory response to keto-isocaproic acid (KIC) (mouse pancreatic islets; 48 h treated islets): decreased
- insulin secretory responses to glucose (summary statement of Example 8) (mouse pancreatic islets; isolated mouse islets, introductory summary, no conditions given): increase in glucose induced insulin secretion
- insulin content in islets vs control islets (islets): comparable
- rate of glucose utilization at basal glucose (mouse islets [2]; 2 mM glucose, 100 μM ALLM or 200 μM E-64-d, 4 h): 15.5±4 pmol/islet/hr
- rate of glucose utilization at stimulatory glucose (mouse islets [2]; 20 mM glucose, 100 μM ALLM or 200 μM E-64-d, 4 h): 79.5±9.5 pmol/islet/hr
- rate of basal glucose utilization and oxidation at 3.3 mM glucose (mouse islets [2]; 48 h treated islets): no significant changes
- rates of glycolysis and glucose oxidation at stimulating concentrations of glucose (mouse islets [2]; 48 h treated islets vs controls): significantly reduced
- glucose oxidation rate at basal glucose (mouse islets [2]; basal glucose, ALLM or E-64-d, 4 h): 5.2±0.4 pmol/islet/hr
- glucose oxidation rate at stimulatory glucose (mouse islets [2]; stimulatory glucose, ALLM or E-64-d, 4 h): 40.0±2.4 pmol/islet/hr
- area under the curve of rate of generation of fluorescent calpain product (calpain; 200 μM inhibitor, 4 hr incubation): 45±5 % of control values
- residual calpain activity in intact islets (calpain; 48 h treatment, 100 μM ALLM or 200 μM E-64-d): 55±4 % of control treated islets
- 2-DOG uptake into adipocytes with insulin (rat adipocytes; insulin 12 nmol/L): 749±129 pmol/2×10^5 cells/5 min
- 2-DOG uptake into adipocytes without insulin (rat adipocytes; no insulin): 361±29 pmol/2×10^5 cells/5 min
- NAD(P)H response to increase in glucose from 2 to 14 mM (mouse islets [3]; 100 μM ALLM or E-64-d, 4 hr preincubation): 2.8±0.3 fold increase
- NAD(P)H responses to KIC vs control (mouse islets [3]; 48 h treated islets): significantly reduced
- NAD(P)H responses to glucose vs control (mouse islets [3]; 48 h treated islets): comparable

Molecule: CC(=O)N[C@@H](CSC(=O)[C@]1([C@@H](O)C(C)C)NC(=O)[C@H](C)[C@@H]1O)C(=O)O [Lactacystin]
- effect on basal or glucose-stimulated insulin secretion (mouse pancreatic islets; 48 h): did not significantly affect

Molecule: CC(C)CC(=O)N[C@H](C(=O)N[C@H](C(=O)N[C@@H](CC(C)C)[C@@H](O)CC(=O)N[C@@H](C)C(=O)N[C@@H](CC(C)C)[C@@H](O)CC(=O)O)C(C)C)C(C)C [pepstatin A] (Isovaleryl-VV[Sta]A[Sta]-OH)
- insulin secretory responses to 20 mM glucose in presence of other protease inhibitors (mouse pancreatic islets): not altered

Molecule: MDL28170
- inhibition of 20 mM glucose-stimulated insulin secretion (mouse pancreatic islets; 48 h, 100 μM ALLM (so in the source), 50 μM MDL28170): approximately 60%
